From patent US10611729B2, “Farnesoid X receptor antagonists” (City of Hope, priority 2014, dated 2020)
Read-outs that look alike come from different tables or passages of the source.

Legend:
[1] = biological target: T1, FXR (Homo sapiens, UniProt Q96RI1); assay: FXR TR-FRET binding assay (DY246 fluorescent probe); details: for inhibition at 0.164 µM: at 164 nM; for IC50: mean ± SE
T1 sequence (Q96RI1 262-486 limits assumed): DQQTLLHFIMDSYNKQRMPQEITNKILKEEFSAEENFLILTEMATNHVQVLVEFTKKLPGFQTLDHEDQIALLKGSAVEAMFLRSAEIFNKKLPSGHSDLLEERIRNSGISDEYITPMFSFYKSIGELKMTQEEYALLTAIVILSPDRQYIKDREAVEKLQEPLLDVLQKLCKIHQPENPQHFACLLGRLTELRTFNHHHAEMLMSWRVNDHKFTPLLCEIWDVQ
Description: The FXR TR-FRET binding assay was performed as previously described^23 with modifications. […] The plate was spun down after a brief shake and incubated at room temperature for 20 min. The TR-FRET emission signals at 520 nm and 490 nm for each well was then collected using a PHERAstar plate reader (BMG LABTECH, Cary, N.C.) with an excitation wavelength of 337 nm, 100-μs delay time, and 200-μs integration time. The 520 nm/490 nm ratio from each well was then calculated. […] The % inhibition of tested chemicals at given concentration was calculated based on negative and positive controls using equation 1.

[2] = biological target: T1, FXR; assay: GeneBLAzer FXR cell-based antagonistic assay (in presence of 400 nM GW4064); set-up: the Gal4 DBD was fused to the LBD of FXR in this assay; host or cells: GeneBLAzer FXR-UAS-bla HEK 293T cells; details: for IC50: with 400 nM GW4064, read-out: GB FXR Cell Anta. IC50
Description: A GeneBLAzer FXR cell-based assay was used to investigate the cellular activities of the 1,3,4-trisubstituted-pyrazol-4-carboxamide analogs. The assay detects the levels of a […] reporter controlled by a promoter containing the binding site of the DNA binding domain (DBD) of the GAL4 transcription factor; the Gal4 DBD was fused to the LBD of FXR in this assay.^35
(§1) FXR transactivation assays were performed using GeneBLAzer FXR-UAS-bla HEK 293T cells (Invitrogen). Cells were maintained according to the manufacturer's instructions. […] Plates were then incubated in dark for 90 min at room temperature before measuring the fluorescent emissions at 460 nm and 535 nm (using excitation at 400 nm) with an Envision plate reader with bottom read capacity. After background signal subtraction for individual emission channels, emission signals at 460 and 535 nm from each well were used to determine the ratio of 460 nm/535 nm. […] The % activation was calculated using equation 2.
The % inhibition was calculated using equation 3.

[3] = biological target: T1, FXR; assay: GeneBLAzer FXR cell-based agonistic assay; set-up: the Gal4 DBD was fused to the LBD of FXR in this assay; host or cells: GeneBLAzer FXR-UAS-bla HEK 293T cells; details: without GW4064, 16 h
Description: The reporter assays were performed after a16 h incubation.
as §1

[4] = test system: GeneBLAzer FXR-UAS-bla HEK 293T cells; details: for GB FXR Cell Cyto % Inh.: human, 16 h, 40 μM
Description: (§2) To examine if certain chemical antagonistic effect was caused by cytotoxicity, the same GeneBLAzer FXR cells were used to perform cytotoxicity assay. This assay was set up like the FXR agonistic assay, with the exception of signal reading. Instead of detecting the reporter activities, CellTiter-Glo® assay was used to detect cell viability. DMSO with cells or without cells group were served as negative (0% Inhibition) or positive (100% Inhibition), respectively.
(§3) Cytotoxicity assays were performed side-by-side with the FXR agonistic assay using GeneBLAzer FXR-UAS-bla HEK 293T cells with CellTiter-Glo® Luminescent Cell Viability Assay reagent (Promega). Briefly, cells were maintained in DMEM supplemented with 10% dialyzed FBS, 0.1 mM non-essential amino acids, 25 mM HEPES, 100 μg/ml of hygromycin B, 100 μg/ml of zeocin, 100 units/ml penicillin and 100 μg/ml streptomycin in regular tissue culture flasks. […] As a positive control, the wells in column 24 of each plate were filled with 30 μL assay medium along with 0.5% DMSO. The final DMSO concentration was 0.5% in each assay well. After a 16 h incubation in a cell culture incubator at 37° C., the cell plates were cooled at room temperature for 20 min and then CellTiter-Glo® reagent 20 μl/well was added followed by an incubation for 20 min in the dark to allow the development of optimal luminescence signal. The luminescence signal from each well in plates was collected with an Envision plate reader equipped with Ultra-sensitive Luminescence detector. The DMSO group and no cell group served as negative (0% activation) and positive (100% activation) controls, respectively. The % inhibition was calculated using equation 4 below.

[5] = test system: GeneBLAzer FXR-UAS-bla HEK 293T cells; assay: Cytotoxicity assay in GeneBLAzer FXR cells (CellTiter-Glo); details: class symbol NT
Description: as §2, §3

[6] = read-out: FXR TR-FRET Binding % Inh.
[7] = read-out: GB FXR Cell Anta. % Inh.

| IC50 [1] [nM] | inhibition at 40 µM [2, 7] [%] | IC50 [2] [nM] | GB FXR Cell Cyto % Inh. [4] | inhibition at 40 µM [1, 6] [%] | activity against FXR at 1 μM [2] | SMILES | also measured |
| --- | --- | --- | --- | --- | --- | --- | --- |
| 7.5 | 98.9 ± 4.3 | 468 ± 8.4 |  |  |  | COc1cccc(Cn2cc(C(=O)Nc3ccc(C)c(S(=O)(=O)N4CCOCC4)c3)c(-c3ccc(C)cc3)n2)c1 [Compound 4j, 1-(3-Methoxybenzyl)-N-(4-methyl-3-(morpholinosulfonyl)phenyl)-3-(p-tolyl)-1H-pyrazole-4-carboxamide] | inhibition at 0.164 µM [1, 6]: 130 ± 5.4%; fold more potent than Z26476908 in FXR TR-FRET binding assay ([1]; ratio of IC50 values): 5.26 fold; FXR antagonistic activity, SAR statement in words [2]: enhanced antagonistic activity; fold more potent than Z26476908 in antagonistic assay ([2]; ratio of IC50 values): 4.59 fold; FXR agonistic activity [3]: no FXR agonistic activity; cytotoxicity [4]: no cytotoxicity |
| 77.5 ± 3.7 | 100 ± 3.7 | 1950 ± 280 | 19.5 ± 1.1% |  |  | Cc1ccc(NC(=O)c2cn(C(C)C)nc2-c2ccc(C(F)(F)F)cc2)cc1S(=O)(=O)N1CCOCC1 [Compound 4p, 1-Isopropyl-N-(4-methyl-3-(morpholinosulfonyl)phenyl)-3-(4-(trifluoromethyl)phenyl)-1H-pyrazole-4-carboxamide] | inhibition at 4.4 µM [1, 6]: 133 ± 5.3% |
| 489 ± 21.2 | 86.4 ± 2.8 | 16200 | 15.0 ± 0.7% | 133 ± 6.2 | weak activity | Cc1ccc(-c2nn(C(C)C)cc2C(=O)N(C)c2ccc(C)c(S(=O)(=O)N3CCOCC3)c2)cc1 [Compound 8-1, 1-Isopropyl-N-methyl-N-(4-methyl-3-(morpholinosulfonyl)phenyl)-3-(p-tolyl)-1H-pyrazole-4-carboxamide] |  |
| 5330 ± 240 |  |  | 13.5 ± 0.4 (40 μM) % | 80.3 ± 5.2 | weak activity | COc1cccc(Cn2cc(C(=O)N(C)c3ccc(C)c(S(=O)(=O)N4CCOCC4)c3)c(C(C)C)n2)c1 [Compound 8-2, 3-Isopropyl-1-(3-methoxybenzyl)-N-methyl-N-(4-methyl-3-(morpholinosulfonyl)phenyl)-1H-pyrazole-4-carboxamide] | inhibition at 20 µM [2, 7]: 2.4 ± 0.1% |
| 3810 ± 200 | 23.8 ± 0.4 |  | 19.7 ± 0.4 (40 μM) % | 69.7 ± 3.5 | weak activity | COc1cccc(Cn2cc(C(=O)N(C)c3ccc(C)c(S(=O)(=O)N4CCOCC4)c3)c(-c3cccc(OC)c3)n2)c1 [Compound 8-3, 1-(3-Methoxybenzyl)-3-(3-methoxyphenyl)-N-methyl-N-(4-methyl-3-(morpholinosulfonyl)phenyl)-1H-pyrazole-4-carboxamide] |  |
| 2040 ± 20 | 36.8 ± 0.3 |  | 10.5 ± 0.3% |  |  | Cc1ccc(-c2nn(C(C)C)cc2CNc2ccc(C)c(S(=O)(=O)N3CCOCC3)c2)cc1 [Compound 9-1, N-((1-Isopropyl-3-(p-tolyl)-1H-pyrazol-4-yl)methyl)-4-methyl-3-(morpholinosulfonyl)aniline] | inhibition at 13.3 µM ([1]; at 13.3 μM, read-out: FXR TR-FRET Binding % Inh.): 99.5 ± 2.6% |
| 2310 ± 320 | 64.8 ± 1.9 | 27800 ± 1540 | 13.9 ± 0.6 (40 μM) % |  |  | COc1cccc(Cn2cc(CNc3ccc(C)c(S(=O)(=O)N4CCOCC4)c3)c(C(C)C)n2)c1 [Compound 9-2, N-((3-Isopropyl-1-(3-methoxybenzyl)-1H-pyrazol-4-yl)methyl)-4-methyl-3-(morpholinosulfonyl)aniline] | inhibition at 4.4 µM [1, 6]: 72.5 ± 2.7% |
| 47 ± 5.1 | 77.2 ± 2.2 | 2620 | 17.9 ± 0.5% |  |  | Cc1ccc(-c2nn(-c3ccccc3)cc2C(=O)Nc2ccc(C)c(S(=O)(=O)N3CCOCC3)c2)cc1 [Compound Z26476908, reference compound] | inhibition at 0.164 µM [1, 6]: 100 ± 5.2% |
|  |  |  |  |  |  | CC(C)c1onc(-c2c(Cl)cccc2Cl)c1COc1ccc(/C=C/c2cccc(C(=O)O)c2)c(Cl)c1 [GW4064] | GB FXR Cell Cyto % Inh. [5]: NT (NT: Not toxic (toxicity less than 5%)) |
|  |  |  |  |  |  | C[C@H](CCC(=O)O)[C@H]1CC[C@H]2[C@@H]3CC[C@@H]4C[C@H](O)CC[C@]4(C)[C@H]3CC[C@]12C [Lithocholic Acid, lithocholic acid] | GB FXR Cell Cyto % Inh. [5]: NT (NT: Not toxic (toxicity less than 5%)) |
